Tested on: 556581-035-R-J1-PDC complex spheroid growth
Assay: Anticancer human tumor 556581-035-R-J1-PDC patient-derived ovarian carcinoma cell line growth inhibition [AhR]
Settings: for IC50: curve of first compound; for viability, T/C: stronger effect = lower value
In short: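 Agents were dosed in half-log steps down from roughly clinical Cmax, or from 10 microM where Cmax was unknown, alone and with AhR antagonists. Read-out: percent test/control growth of tumor spheroids containing HUVEC and MSC stromal cells.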
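Wherever viability, T/C is given: compound exposure lasted 7 days; 100% = DMSO vehicle control growth.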

Q: For `CC1(C)CCC(CN2CCN(c3ccc(C(=O)NS(=O)(=O)c4ccc(NCC5CCOCC5)c([N+](=O)[O-])c4)c(Oc4cnc5[nH]ccc5c4)c3)CC2)=C(c2ccc(Cl)cc2)C1` + CC(CO)NC(=O)c1cc(-c2ccc(Cl)cc2)nn(-c2cnn(C)c2)c1=O, which IC50 (second compound 0.1 µM) is on record?
A: Its IC50 is greater than 10 µM.

Q: What about the IC50 (second compound 0.316 µM) of the same molecule?
A: Its IC50 is greater than 10 µM.

Q: What about the IC50 (second compound 1 µM) of the same molecule?
A: Its IC50 is greater than 10 µM.

Q: What about the IC50 (second compound 3.16 µM) of the same molecule?
A: Its IC50 is greater than 10 µM.

Q: And the IC50 (second compound 10 µM)?
A: The IC50 was greater than 10 µM.

Q: And the viability, T/C (second compound 0.1 µM, first compound 0.0316 µM)?
A: Its viability, T/C is 99.2%.

Q: What about the viability, T/C (second compound 0.1 µM, first compound 0.1 µM) of the same molecule?
A: Its viability, T/C is 111%.

Q: And the viability, T/C (second compound 0.1 µM, first compound 0.316 µM)?
A: Its viability, T/C is 114%.

Q: What about the viability, T/C (second compound 0.1 µM, first compound 1 µM) of the same molecule?
A: The viability, T/C was 90.7%.

Q: And the viability, T/C (second compound 0.1 µM, first compound 3.16 µM)?
A: The viability, T/C was 96.5%.

Q: And the viability, T/C (second compound 0.1 µM, first compound 10 µM)?
A: The viability, T/C was 90.1%.

Q: And the viability, T/C (second compound 0.316 µM, first compound 0.0316 µM)?
A: The viability, T/C was 99.3%.

Q: What about the viability, T/C (second compound 0.316 µM, first compound 0.1 µM) of the same molecule?
A: Its viability, T/C is 116%.

Q: And the viability, T/C (second compound 0.316 µM, first compound 0.316 µM)?
A: Its viability, T/C is 102%.

Q: What about the viability, T/C (second compound 0.316 µM, first compound 1 µM) of the same molecule?
A: The viability, T/C was 97.2%.

Q: And the viability, T/C (second compound 0.316 µM, first compound 3.16 µM)?
A: Its viability, T/C is 98.6%.

Q: What about the viability, T/C (second compound 0.316 µM, first compound 10 µM) of the same molecule?
A: Its viability, T/C is 82.8%.

Q: And the viability, T/C (second compound 1 µM, first compound 0.0316 µM)?
A: The viability, T/C was 117%.

Q: What about the viability, T/C (second compound 1 µM, first compound 0.1 µM) of the same molecule?
A: The viability, T/C was 117%.

Q: And the viability, T/C (second compound 1 µM, first compound 0.316 µM)?
A: The viability, T/C was 105%.

Q: And the viability, T/C (second compound 1 µM, first compound 1 µM)?
A: Its viability, T/C is 106%.

Q: What about the viability, T/C (second compound 1 µM, first compound 3.16 µM) of the same molecule?
A: Its viability, T/C is 103%.

Q: What about the viability, T/C (second compound 1 µM, first compound 10 µM) of the same molecule?
A: Its viability, T/C is 79.5%.

Q: And the viability, T/C (second compound 3.16 µM, first compound 0.0316 µM)?
A: Its viability, T/C is 104%.

Q: What about the viability, T/C (second compound 3.16 µM, first compound 0.1 µM) of the same molecule?
A: The viability, T/C was 106%.

Q: And the viability, T/C (second compound 3.16 µM, first compound 0.316 µM)?
A: Its viability, T/C is 105%.

Q: And the viability, T/C (second compound 3.16 µM, first compound 1 µM)?
A: Its viability, T/C is 122%.

Q: And the viability, T/C (second compound 3.16 µM, first compound 3.16 µM)?
A: Its viability, T/C is 94%.

Q: And the viability, T/C (second compound 3.16 µM, first compound 10 µM)?
A: Its viability, T/C is 73%.

Q: And the viability, T/C (second compound 10 µM, first compound 0.0316 µM)?
A: Its viability, T/C is 109%.

Q: And the viability, T/C (second compound 10 µM, first compound 0.1 µM)?
A: The viability, T/C was 115%.

Q: And the viability, T/C (second compound 10 µM, first compound 0.316 µM)?
A: Its viability, T/C is 115%.

Q: What about the viability, T/C (second compound 10 µM, first compound 1 µM) of the same molecule?
A: Its viability, T/C is 122%.

Q: And the viability, T/C (second compound 10 µM, first compound 3.16 µM)?
A: The viability, T/C was 99%.

Q: What about the viability, T/C (second compound 10 µM, first compound 10 µM) of the same molecule?
A: Its viability, T/C is 85.7%.

Q: For `CCN(c1cc(-c2ccc(CN3CCOCC3)cc2)cc(C(=O)NCc2c(C)cc(C)[nH]c2=O)c1C)C1CCOCC1` + CC(CO)NC(=O)c1cc(-c2ccc(Cl)cc2)nn(-c2cnn(C)c2)c1=O, which IC50 (second compound 0.1 µM) is on record?
A: The IC50 was greater than 3 µM.

Q: What about the IC50 (second compound 0.316 µM) of the same molecule?
A: Its IC50 is greater than 3 µM.

Q: What about the IC50 (second compound 1 µM) of the same molecule?
A: The IC50 was greater than 3 µM.

Q: And the IC50 (second compound 3.16 µM)?
A: Its IC50 is greater than 3 µM.

Q: And the IC50 (second compound 10 µM)?
A: Its IC50 is greater than 3 µM.

Q: And the viability, T/C (second compound 0.1 µM, first compound 0.00949 µM)?
A: The viability, T/C was 103%.

Q: And the viability, T/C (second compound 0.1 µM, first compound 0.03 µM)?
A: The viability, T/C was 102%.

Q: And the viability, T/C (second compound 0.1 µM, first compound 0.0949 µM)?
A: The viability, T/C was 94.7%.

Q: What about the viability, T/C (second compound 0.1 µM, first compound 0.3 µM) of the same molecule?
A: Its viability, T/C is 94.7%.

Q: And the viability, T/C (second compound 0.1 µM, first compound 0.949 µM)?
A: Its viability, T/C is 102%.

Q: And the viability, T/C (second compound 0.1 µM, first compound 3 µM)?
A: Its viability, T/C is 91.8%.

Q: And the viability, T/C (second compound 0.316 µM, first compound 0.00949 µM)?
A: The viability, T/C was 102%.

Q: And the viability, T/C (second compound 0.316 µM, first compound 0.03 µM)?
A: Its viability, T/C is 91.2%.

Q: What about the viability, T/C (second compound 0.316 µM, first compound 0.0949 µM) of the same molecule?
A: Its viability, T/C is 96.5%.

Q: What about the viability, T/C (second compound 0.316 µM, first compound 0.3 µM) of the same molecule?
A: Its viability, T/C is 92.2%.

Q: And the viability, T/C (second compound 0.316 µM, first compound 0.949 µM)?
A: The viability, T/C was 108%.

Q: What about the viability, T/C (second compound 0.316 µM, first compound 3 µM) of the same molecule?
A: The viability, T/C was 91.8%.

Q: What about the viability, T/C (second compound 1 µM, first compound 0.00949 µM) of the same molecule?
A: The viability, T/C was 106%.

Q: What about the viability, T/C (second compound 1 µM, first compound 0.03 µM) of the same molecule?
A: Its viability, T/C is 106%.

Q: And the viability, T/C (second compound 1 µM, first compound 0.0949 µM)?
A: The viability, T/C was 117%.

Q: What about the viability, T/C (second compound 1 µM, first compound 0.3 µM) of the same molecule?
A: Its viability, T/C is 105%.

Q: And the viability, T/C (second compound 1 µM, first compound 0.949 µM)?
A: Its viability, T/C is 87.8%.

Q: And the viability, T/C (second compound 1 µM, first compound 3 µM)?
A: The viability, T/C was 106%.

Q: And the viability, T/C (second compound 3.16 µM, first compound 0.00949 µM)?
A: The viability, T/C was 106%.

Q: And the viability, T/C (second compound 3.16 µM, first compound 0.03 µM)?
A: Its viability, T/C is 99.7%.

Q: What about the viability, T/C (second compound 3.16 µM, first compound 0.0949 µM) of the same molecule?
A: The viability, T/C was 90.7%.

Q: What about the viability, T/C (second compound 3.16 µM, first compound 0.3 µM) of the same molecule?
A: Its viability, T/C is 95%.

Q: And the viability, T/C (second compound 3.16 µM, first compound 0.949 µM)?
A: Its viability, T/C is 100%.

Q: What about the viability, T/C (second compound 3.16 µM, first compound 3 µM) of the same molecule?
A: Its viability, T/C is 87.9%.

Q: What about the viability, T/C (second compound 10 µM, first compound 0.00949 µM) of the same molecule?
A: Its viability, T/C is 94.9%.

Q: What about the viability, T/C (second compound 10 µM, first compound 0.03 µM) of the same molecule?
A: Its viability, T/C is 101%.

Q: And the viability, T/C (second compound 10 µM, first compound 0.0949 µM)?
A: Its viability, T/C is 113%.

Q: And the viability, T/C (second compound 10 µM, first compound 0.3 µM)?
A: Its viability, T/C is 94.6%.

Q: And the viability, T/C (second compound 10 µM, first compound 0.949 µM)?
A: The viability, T/C was 89.8%.

Q: And the viability, T/C (second compound 10 µM, first compound 3 µM)?
A: Its viability, T/C is 94.8%.
